Holding throughout (format): in vitro ADME
Common to all, as to conditions: 37° C.; for remaining at 0.5 h: 30 min, read-out: Remaining Percentage (%), 30 min; for remaining at 1 h: 60 min, read-out: Remaining Percentage (%), 60 min; for half-life: >255.85 if remaining at 60 min greater than 85%

One data set can be described thus: Plasma stability, human. How it is done:
(§1) • a. […] The final concentration of organic solvents was 0.5%. The assay was performed in duplicated. • b.
(§2) All calculations were carried out using Microsoft Excel.

A short description of the next data set: Plasma stability, rat. How it is done:
as §1, §2

Another data set can be described thus: Plasma stability, mouse. How it is done: as §1, §2

As usually defined, the half-life is the time needed for the level to fall by half in the phase considered. A lower half-life goes with rapid decline.

With `[2H]C([2H])([2H])Oc1ccc2c(c1)N(C([2H])([2H])[C@H]1CCCN1C([2H])([2H])[2H])CC2` [(R)-I-28, (R)-6-(Methoxy-d3)-1-((1-(methyl-d3)pyrrolidin-2-yl)methyl-d2) indoline], in “Plasma stability, human”, the “Remaining Percentage (%), 0 min” value is recorded as 100.00%; the amount remaining at 0.5 h came out at 95.1%; the fraction remaining at 1 h is 94.2%; the half-life is greater than 4.26 h. Moreover, in “Plasma stability, rat”, the “Remaining Percentage (%), 0 min” value was determined as 100.00%; the amount remaining at 0.5 h turned out to be 97.9%; the amount remaining at 1 h was found to be 94.7%; the half-life is greater than 4.26 h. Besides, in the data set “Plasma stability, mouse”, the “Remaining Percentage (%), 0 min” value is given as 100.00%; the fraction remaining at 0.5 h came out at 99.2%; the amount remaining at 1 h was 93.3%; the half-life was greater than 4.26 h.
Consider `COc1cccc2c1N(C[C@H]1CCCN1C)CC2` [(R)-I-46, (R)-7-Methoxy-1-((1-methylpyrrolidin-2-yl)methyl) indoline], for which, in “Plasma stability, human”, the “Remaining Percentage (%), 0 min” value came out at 100.00%; the share remaining at 0.5 h came out at 104%; the amount remaining at 1 h was determined as 93%; the half-life is greater than 4.26 h. Besides, in the data set “Plasma stability, rat”, the “Remaining Percentage (%), 0 min” value is listed as 100.00%; the share remaining at 0.5 h was found to be 91.3%; the share remaining at 1 h came to 86.7%; the half-life is greater than 4.26 h. In “Plasma stability, mouse”, the “Remaining Percentage (%), 0 min” value is listed as 100.00%; the fraction remaining at 0.5 h amounted to 103%; the fraction remaining at 1 h amounted to 92.4%; the half-life was greater than 4.26 h.
Take `COc1ccc2c(c1)N(C[C@H]1CCCN1C)CC2` [(R)-I-58, (R)-6-Methoxy-1-((1-methylpyrrolidin-2-yl)methyl) indoline]: in “Plasma stability, human”, the “Remaining Percentage (%), 0 min” value was determined as 100.00%; the fraction remaining at 0.5 h was determined as 108%; the share remaining at 1 h stood at 98.5%; the half-life is greater than 4.26 h. In addition, in “Plasma stability, rat”, the “Remaining Percentage (%), 0 min” value was 100.00%; the amount remaining at 0.5 h was determined as 111%; the share remaining at 1 h is 110%; the half-life was greater than 4.26 h. For the same compound, in the data set “Plasma stability, mouse”, the “Remaining Percentage (%), 0 min” value turned out to be 100.00%; the amount remaining at 0.5 h amounted to 97.4%; the amount remaining at 1 h came out at 105%; the half-life was greater than 4.26 h.
On to `[2H]C([2H])([2H])N1CCC[C@@H]1C([2H])([2H])N1CCc2ccc(OC)cc21` [(R)-I-57, (R)-6-Methoxy-1-((1-(methyl-d3)pyrrolidin-2-yl)methyl-d2) indoline], for which, in “Plasma stability, human”, the “Remaining Percentage (%), 0 min” value is 100.00%; the amount remaining at 0.5 h is 108%; the amount remaining at 1 h amounted to 113%; the half-life was greater than 4.26 h. In “Plasma stability, rat”, the “Remaining Percentage (%), 0 min” value was determined as 100.00%; the share remaining at 0.5 h worked out at 92.5%; the fraction remaining at 1 h was 89.7%; the half-life is greater than 4.26 h. In addition, in “Plasma stability, mouse”, the “Remaining Percentage (%), 0 min” value was 100.00%; the share remaining at 0.5 h amounted to 105%; the amount remaining at 1 h amounted to 100%; the half-life was greater than 4.26 h.

For the origin of these results see patent publication US20260356814A1, “INDOLINE DERIVATIVES AS SEROTONERGIC AGENTS USEFUL FOR THE TREATMENT OF DISORDERS RELATED THERETO” (MINDSET PHARMA INC., priority 2022, published 2026).
